Experimental data as given in article PMC8991199, “Promiscuity mapping of the S100 protein family using a high-throughput holdup assay” (Scientific Reports, 2022).
Numbering of substitutions follows the chain as printed.

Key:
Format in all cases: binding
[1] = target: T1, S100P (Homo sapiens, UniProt P25815); test: direct fluorescence polarization (FP), S100P; conditions: 50 nM labeled foldamer, 20 mM HEPES pH 7.5, 150 mM NaCl, 1 mM CaCl2, 0.5 mM TCEP, 0.01% Tween20, quadratic fit, mean ± SEM, three technical repeats, threshold 1 mM
T1 sequence (P25815 1-95): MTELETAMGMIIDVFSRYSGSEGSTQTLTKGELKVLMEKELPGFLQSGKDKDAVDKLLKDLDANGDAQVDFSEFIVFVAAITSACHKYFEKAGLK
Description: (§1) HTP (and also low-throughput) measurements generally need to be validated by an orthogonal approach to eliminate experimental artifacts. […] In this assay, the association of the fluorescently labeled foldamer and the S100 protein of interest is monitored, through the change in polarization of the emitted light by the fluorophore upon the binding event. In direct FP, the presence of the fluorophore might change the binding affinity of some foldamers. […] Nevertheless, we assumed that the fluorophore would affect all foldamers that target the same binding site to the same degree, because the foldamer scaffold is rigid.
(§2) Briefly, S100 proteins were cloned into a modified pET15b vector with a TEV protease cleavable N-terminal His6-tag and expressed in Escherichia coli BL21 (DE3) cells, followed by Ni^2+-affinity chromatography. For HU assay, S100 proteins were further purified by either hydrophobic interaction chromatography or ion exchange chromatography without the cleavage of the N-terminal His6-tag applying standard conditions. For direct FP measurements, the N-terminal His6-tag was cleaved, and the S100 proteins were purified by hydrophobic interaction chromatography, ion exchange chromatography or size exclusion chromatography. The quality of the recombinant proteins was checked by SDS-PAGE analysis in all cases. The concentration of the recombinant S100 proteins was determined by UV spectrophotometry using the absorbance of Tyr and Trp residues.
(§3) In direct fluorescence polarization assays, S100 proteins were diluted in a buffer containing 50 nM labeled foldamer, 20 mM HEPES pH 7.5, 150 mM NaCl, 1 mM CaCl2, 0.5 mM TCEP and 0.01% Tween20. The dilution series (50 µl) were divided into three technical repeats and transferred (15 µl) to a 384-well microplate. In competitive fluorescence polarization assays, the buffer applied in direct measurements was supplemented with the S100 protein of interest to reach a saturation of 60–80%. This mixture was titrated with the competitor (i.e. the unlabeled peptide). Fluorescence polarization was measured in 8 different S100 concentrations (one of which contained no S100 protein) on a Synergy H4 plate reader using 485 ± 20 nm and 528 ± 20 nm band-pass filters for excitation and emission, respectively. The Kd values were obtained by fitting the data from the FP measurements with the python-based ProFit software using quadratic and competitive binding equation for direct and competitive FP, respectively. The detection threshold was based on two parameters. First, we rejected all fitted dissociation constants above 1 mM.

[2] = target: T2, S100A3 (Homo sapiens, UniProt P33764); test: direct fluorescence polarization (FP), S100A3; conditions: S100A3, 50 nM labeled foldamer, 20 mM HEPES pH 7.5, 150 mM NaCl, 1 mM CaCl2, 0.5 mM TCEP, 0.01% Tween20, quadratic fit, mean ± SEM, three technical repeats, threshold 1 mM
T2 sequence (P33764 1-101): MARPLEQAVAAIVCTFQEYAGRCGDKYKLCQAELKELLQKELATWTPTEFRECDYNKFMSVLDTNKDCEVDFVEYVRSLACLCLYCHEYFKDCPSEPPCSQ
Experimental: (§4) HTP (and also low-throughput) measurements generally need to be validated by an orthogonal approach to eliminate experimental artifacts. […] This way, we chose WL, IF, WW, YF, IL, VL, TW, RF, RR, TI, TM, and after resynthesizing with a fluorescent label at the C-terminus (Figs. S15–S26, Table S1), the S100ome was tested against the labeled foldamers by direct fluorescence polarization (FP) (Fig. 3A). In this assay, the association of the fluorescently labeled foldamer and the S100 protein of interest is monitored, through the change in polarization of the emitted light by the fluorophore upon the binding event. In direct FP, the presence of the fluorophore might change the binding affinity of some foldamers. […] Nevertheless, we assumed that the fluorophore would affect all foldamers that target the same binding site to the same degree, because the foldamer scaffold is rigid. Defining the threshold of detection at the dissociation constant of 1 mM, we identified 87 interactions between the selected foldamer fragments and the S100ome out of 220 possible interactions (Table 1, Fig. S4-14).
as §2, §3

[3] = target: T3, S100A7 (Homo sapiens, UniProt P31151); test: direct fluorescence polarization (FP), S100A7; conditions: S100A7, 50 nM labeled foldamer, 20 mM HEPES pH 7.5, 150 mM NaCl, 1 mM CaCl2, 0.5 mM TCEP, 0.01% Tween20, quadratic fit, mean ± SEM, three technical repeats, threshold 1 mM
T3 sequence (P31151 1-101): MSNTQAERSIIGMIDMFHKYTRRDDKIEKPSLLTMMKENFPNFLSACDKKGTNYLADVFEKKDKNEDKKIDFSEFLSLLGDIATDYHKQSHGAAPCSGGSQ
Experimental: as §4, §2, §3

[4] = target: T4, S100A15 (Homo sapiens, UniProt Q86SG5); test: direct fluorescence polarization (FP), S100A15; conditions: S100A15, 50 nM labeled foldamer, 20 mM HEPES pH 7.5, 150 mM NaCl, 1 mM CaCl2, 0.5 mM TCEP, 0.01% Tween20, quadratic fit, mean ± SEM, three technical repeats, threshold 1 mM
T4 sequence (Q86SG5 1-101): T3 sequence (P31151 1-101) with R22G, D25G, T52I, N53H, D57T, T84A
Experimental: as §4, §2, §3

[5] = target: T5, S100A13 (Homo sapiens, UniProt Q99584); test: direct fluorescence polarization (FP), S100A13; conditions: S100A13, 50 nM labeled foldamer, 20 mM HEPES pH 7.5, 150 mM NaCl, 1 mM CaCl2, 0.5 mM TCEP, 0.01% Tween20, quadratic fit, mean ± SEM, three technical repeats, threshold 1 mM
T5 sequence (Q99584 1-98): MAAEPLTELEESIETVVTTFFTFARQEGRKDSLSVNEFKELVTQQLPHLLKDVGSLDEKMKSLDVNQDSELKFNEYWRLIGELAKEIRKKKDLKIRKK
Experimental: as §4, §2, §3

[6] = target: S100A6 (Homo sapiens, UniProt P06703); test: direct fluorescence polarization (FP), S100A6
Description: as §1, §2, §3

[7] = target: S100A2 (Homo sapiens, UniProt P29034); test: direct fluorescence polarization (FP), S100A2; conditions: S100A2, 50 nM labeled foldamer, 20 mM HEPES pH 7.5, 150 mM NaCl, 1 mM CaCl2, 0.5 mM TCEP, 0.01% Tween20, quadratic fit, mean ± SEM, three technical repeats, threshold 1 mM
Description: as §1, §2, §3

[8] = target: T6, S100Z (Homo sapiens, UniProt Q8WXG8); test: direct fluorescence polarization (FP), S100Z; conditions: 50 nM labeled foldamer, 20 mM HEPES pH 7.5, 150 mM NaCl, 1 mM CaCl2, 0.5 mM TCEP, 0.01% Tween20, quadratic fit, mean ± SEM, three technical repeats, threshold 1 mM
T6 sequence (Q8WXG8 1-99): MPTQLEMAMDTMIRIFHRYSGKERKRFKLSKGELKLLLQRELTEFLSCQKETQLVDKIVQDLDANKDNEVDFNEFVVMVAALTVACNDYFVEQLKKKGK
Description: as §1, §2, §3

S100A2, sequence (P29034 whole entry): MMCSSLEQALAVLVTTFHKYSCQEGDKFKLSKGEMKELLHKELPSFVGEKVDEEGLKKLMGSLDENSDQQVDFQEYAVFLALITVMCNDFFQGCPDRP

NC(=O)[C@H](CCCCNC(=O)c1ccc2c(c1)C1(OC2=O)c2ccc(O)cc2Oc2cc(O)ccc21)NC(=O)CNC(=O)[C@H]1CCCC[C@@H]1NC(=O)C[C@H](Cc1c[nH]c2ccccc12)NC(=O)[C@H]1CCCC[C@@H]1NC(=O)[C@H]1CCCC[C@@H]1NC(=O)C[C@H](Cc1c[nH]c2ccccc12)NC(=O)[C@H]1CCCC[C@@H]1N [fWW]
Kd [1]: 190 ± 6.9 µM | Kd [2]: 310 ± 21 µM | Kd [3]: > 1000 µM | Kd [4]: > 1000 µM | Kd [5]: > 1000 µM | Kd [6]: 100 ± 3.2 µM | Kd [7]: 65 ± 1.2 µM | Kd [8]: > 1000 µM
